Consider 1 compound from ChEMBL document CHEMBL1201862, “PubChem BioAssay data set” (2004).

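Values below derive from 48-hour exposures of cells grown in 96-well plates, with endpoints linearly interpolated between the two concentrations bracketing the appropriate inhibition level. GI50 = concentration required for 50% inhibition of growth.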 Active and inactive are the calls of the source. No stated cut-off is given here; in the data, active = GI50 up to about 1.1 µM and inactive = higher.

A word on the GI50: it is the concentration that inhibits growth by half.

Test systems include A498; CAKI-1; CCRF-CEM; HCT-15; HT-29; IGROV-1; MOLT-4; Malme-3M; NCI-H226; NCI-H23; NCI-H460; OVCAR-3; OVCAR-4; OVCAR-5; RXF 393; SF-539; SK-MEL-5; SNB-19; U-251; UACC-257.
Holding throughout (assay): DTP human tumour cell line panel, 48 h

Consider `CCCCCCCC/C=C\CCCCCCCCCCCC(=O)O` [ERUCIC ACID], for which the concentration for 50% growth inhibition (GI50) in the assay on A498 is 0.891 µM (active); with CAKI-1, 42 µM (inactive); in the assay with CCRF-CEM, 24.4 µM (inactive); with HCT-15, 43.7 µM; in the assay on HT-29, 43.8 µM (inactive); in the assay on IGROV-1, 55.1 µM (inactive). Besides, the GI50 in the assay with MOLT-4 was 37.3 µM (inactive); with Malme-3M it was 47.9 µM (inactive); in the assay on NCI-H226, 52.4 µM (inactive); in the assay on NCI-H23, 25.5 µM (inactive); in the assay on NCI-H460 it was 7.48 µM (inactive); in the assay with OVCAR-3 it was 17.8 µM (inactive). Further, the GI50 in the assay with OVCAR-4 was 30.8 µM (inactive); in the assay on OVCAR-5 it was 102 µM (inactive); with RXF 393, 8.02 µM (inactive); with SF-539 it was 16.8 µM (inactive); with SK-MEL-5, 18.8 µM (inactive); with SNB-19, 30.8 µM (inactive). The results for the GI50 in the assay on U-251 and in the assay on UACC-257 were 37.9 µM (inactive) and 58.2 µM (inactive), respectively.
